Test results taken from patent publication US20250129069A1, “TRIAZOLO WRN INHIBITORS” (Nimbus Wadjet, Inc., priority 2023, published 2025).

Columns and labels:
[1] = target: human Werner helicase (WRN, amino acids 517-1235 with L1074F point mutation) (Homo sapiens (Human), UniProt Q14191, L1074F); test: WRN (BV08) ADP-Glo assay; format: biochemical; settings: human WRN (aa 517-1235, L1074F), read-out: ADP-Glo_hWRN_IC50
Source text: Bovine skin gelatin (BSG), dimethyl sulfoxide (DMSO), Pluronic F-127 and tris(2-carboxyethyl)phosphine hydrochloride solution (TCEP) were purchased from Sigma-Aldrich (St. Louis, MO) at the highest level of purity possible. Bicine buffer solution was purchased from Alfa Aesar (Tewksbury, MA) and compound NSC-617145 was purchased from Tocris (Minneapolis, MN). DNA duplex was synthesized at BGI (Shenzhen, China) and was composed of strand 1 with the sequence 5′-[…]-3′ (SEQ ID NO.: 1) and strand 2 with the sequence 5′-[…]-3′ (SEQ ID NO.: 2). DNA strands were annealed by heating to 95° C. for 5 minutes followed by slow cooling to room temperature. Compounds in 100% DMSO (0.1 μl) were spotted into a 384-well white polystyrene Optiplate-384 (Perkin Elmer; Waltham, MA) assay plate using a LabCyte Echo 550 (Agilent; Santa Clara, CA). DMSO (0.1 μl) was added to columns 12, rows A-H and column 24, rows I-P for the maximum signal control. Compound NSC-617145 (0.1 μl) was added to columns 12, rows I-P and 24, rows A-H for the minimum signal control (100% inhibition). Compounds/DMSO were preincubated for 15 minutes at 25° C. with 5 μl 2×WRN (BV08), prepared as described below, in assay buffer containing 20 mM Bicine (pH=7.5), 1 mM MgCl2, 10 mM KCl, 0.1% Pluronic F-127, 0.005% BSG, 1 mM TCEP. The reaction was initiated by the addition of 5 μl 2× substrate mixture in assay buffer and incubated for 60 minutes at 25° C. The final concentrations of the assay components were 0.15 nM WRN, 5 μM ATP, and 0.1 nM DNA duplex. The final DMSO concentration was 1% and the reference compound concentration (NSC-617145) used for the minimal signal control was 20 μM. The reaction was stopped by the addition of the ADP-Glo Kit components (Promega; Madison, WI) as directed and the relative luminescence units (RLU) were read on an Envision 2104 (Perkin Elmer; Waltham, MA).
% inhibition calculation:
% INH=(RLU MAX−RLU sample)/(RLU MAX−RLU MIN))×100
Where RLU=relative luminescence units, sample=signal in sample well, and MIN and MAX are the respective minimum and maximum signal controls. Four-parameter IC50 fit equation:
Y=Bottom+(Top−Bottom)/(1+(IC50/X)^Hill Slope)
Where top and bottom are normally allowed to float but may be fixed at 100 or 0 respectively in a 3-parameter fit. Y is the % inhibition and X is the compound concentration.
Molecular Biology and virus production. The DNA encoding human Werner helicase (Uniprot Q14191, amino acids 517-1235 with L1074F point mutation) was generated with codon-optimization for E. coli expression and subcloned into the pFastBac vector with a TEV cleavable 8×His tag (WRN—BV08). The baculovirus from the expression plasmid WRN—BV08 was generated from transfection and amplification following the manufacturer's instructions.
Sf9 cells grown in SF900II media were infected with 1:200 WRN—BV08 P2 virus and incubated for protein expression for 72 h at 27° C. The WRN protein was purified using the following protocol. The cell pellets were thawed and resuspended in buffer A (50 mM Tris, pH 7.5, 500 mM NaCl, 1 mM TCEP, 10% Glycerol) supplemented with 0.5% CHAPS, 1 mM PMSF, […] Leupeptin, 1 μg/ml Pepstatin, and the Pierce Universal Nuclease and cocktail tablet. Cleared lysates were loaded onto a Ni Sepharose™ excel column and washed with buffer A and bound protein was eluted with buffer A supplemented with 300 mM imidazole. The eluted protein was dialyzed against buffer A and digested by His-tagged TEV (1:5 ratio) overnight at 4° C. ZnCl2 was added into the sample at final 15 μM before loading onto a second Ni Sepharose™ excel column. Untagged WRN protein was eluted from the column with buffer A supplemented with 20 mM imidazole, dialyzed overnight into buffer B (50 mM Tris, pH 7.5, 1 mM TCEP, 10% Glycerol) supplemented with 150 mM NaCl and loaded onto a Heparin column. Proteins were eluted with a step gradient of buffer B supplemented with 150 mM, 200 mM, 300 mM and 500 mM NaCl. […]

[2] = test system: p21 induction in HCT 116 cells; test: p21 induction in cells (In-Cell Western, p21/GAPDH ratio); format: cell-based; settings: Homo sapiens, 24 h compound incubation, read-out: p21_EC50
Procedure: The colon carcinoma cell line HCT 116 was obtained from ATCC and cultured in growth medium consisting of Mccoy's 5A Medium (Gibco 16600108) supplemented with 10% FBS (Transgene FS201-02) and 100 units/mL penicillin-streptomycin (Gibco 15140122) and maintained at 37° C. under 5% CO2. On the day of seeding, 2,000 cells in 30 μL of culture media were plated per well to Poly-D-Lysine 384 Well Black Clear Plates (Biocoat 356663) and incubated overnight at 37° C. under 5% CO2. The following day, compounds were serially diluted in DMSO for a total of 11 test concentrations. The typical starting concentration of compounds was 10 μM with 2-fold dilutions. Next, 150 nL of diluted compound was added in duplicate to the assay plate, using an Echo 655 (Labcyte). The plate was centrifuged at 500 RPM for 1 min and then incubated at 37° C. under 5% CO2 for 24 h. After 24 h, medium was removed, and cells were fixed by adding 40 μL of 4% paraformaldehyde solution to each well and incubated for 20 min at room temperature. The plate was then washed 4 times with 100 μL per well of wash buffer (PBS with 0.1% Tween-20) using a microplate washer. Next, 30 μL of ice-cold methanol was added to each well and the plate was incubated at −20° C. for 10 min. The plate was washed 4 times with 100 μL per well of wash buffer by a microplate washer, then 30 μL per well of blocking buffer ((Intercept PBS blocking buffer (LI-COR 927-70001) with 0.05% Tween-20)) was added and the plate was incubated at room temperature with shaking for 2 h. Next, to each test well, 20 μL of primary antibody solution (p21 Wafl/CIP (12D1) RabbitmAb (Cell Signaling Technologies 2947) diluted 1:1000 and GAPDH (D4C6R) Mouse mAb (Cell Signaling Technologies 97166) diluted 1:2000 in blocking buffer) was added and the plate was placed at 4° C., overnight. The following day, the plate was washed 5 times with 100 μL per well of wash buffer using a microplate washer for 5 min. 20 μL per well of secondary antibody (IRDye 680CW Goat anti-Mouse IgG (H+L) (LI-COR 926-68070) diluted 1:2000 in Blocking Buffer and IRDye 800CW Goat anti-Rabbit IgG (H+L) (LI-COR 926-32211) diluted 1:2000 in Blocking Buffer) was then added and the plate was stored for 2 h in the dark at room temperature with shaking. The plate was then washed 4 times with 100 μL per well of wash buffer again using a microplate washer. Finally, the p21 signal and the GAPDH signal were quantified using a LI-COR Odyssey CLx Imager machine reading at 800 nm and 700 nm, respectively. Each plate contained DMSO control (low control) and an internal reference WRN inhibitor (high control) respectively. For quantitation, the 800 nm/700 nm ratio was calculated for each well to give fold p21 induction and then percent activation for each compound well was calculated as follows (100×(ratio cpd well-ratio low control)/(ratio high control−ratio low control). EC50 values for each compound was generated after non-linear regression curve fitting using commercially available software.

Sequence of human Werner helicase (WRN, amino acids 517-1235 with L1074F point mutation) (Q14191 other isoform, or with tags, fused parts or gaps L1074F (already in the parent)): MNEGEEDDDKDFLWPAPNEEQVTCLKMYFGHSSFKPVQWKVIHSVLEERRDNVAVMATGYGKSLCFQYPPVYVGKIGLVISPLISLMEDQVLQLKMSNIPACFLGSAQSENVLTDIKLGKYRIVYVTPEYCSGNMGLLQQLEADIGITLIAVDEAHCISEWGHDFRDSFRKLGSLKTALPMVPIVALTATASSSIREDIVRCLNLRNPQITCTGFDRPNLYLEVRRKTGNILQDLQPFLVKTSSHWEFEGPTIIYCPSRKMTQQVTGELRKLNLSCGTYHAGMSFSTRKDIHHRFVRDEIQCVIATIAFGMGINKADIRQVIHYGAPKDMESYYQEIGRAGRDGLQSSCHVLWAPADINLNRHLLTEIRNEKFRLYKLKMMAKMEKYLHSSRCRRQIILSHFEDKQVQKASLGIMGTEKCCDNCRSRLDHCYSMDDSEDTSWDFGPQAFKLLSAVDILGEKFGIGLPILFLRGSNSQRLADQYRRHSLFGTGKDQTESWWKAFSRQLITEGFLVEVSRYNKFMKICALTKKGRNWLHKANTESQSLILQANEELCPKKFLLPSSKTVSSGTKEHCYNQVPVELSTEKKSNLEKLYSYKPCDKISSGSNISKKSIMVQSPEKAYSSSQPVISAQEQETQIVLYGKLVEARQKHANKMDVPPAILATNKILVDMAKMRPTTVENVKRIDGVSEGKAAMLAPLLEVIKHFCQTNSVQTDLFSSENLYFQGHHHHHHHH

IC50 [1] [µM] | EC50 [2] [µM] | Structure (SMILES)
0.005 to 0.05 | ≤ 0.5 | CCc1c(N2CCN(C(=O)OC)[C@H]3CC[C@@H]32)c(=O)c2nn(C3=CCOCC3)nc2n1CC(=O)NC12CC(C(C)C)(C1)C2 [Compound I-162, methyl (1S,6S)-5-[2-(3,6-dihydro-2H-pyran-4-yl)-5-ethyl-7-oxo-4-({[3-(propan-2-yl)bicyclo[1.1.1]pentan-1-yl]carbamoyl}methyl)-2H,4H,7H-[1,2,3]triazolo[4,5-b]pyridin-6-yl]-2,5-diazabicyclo[4.2.0]octane-2-carboxylate]
0.005 to 0.05 | ≤ 0.5 | CCc1c(N2CCN(C(=O)c3c(O)ccc4ncoc34)CC2)c(=O)c2nn(-c3ccnc(OC)c3)nc2n1CC(=O)NC12CC(CC)(C1)C2 [Compound I-142, 2-{5-ethyl-6-[4-(6-hydroxy-1,3-benzoxazole-7-carbonyl)piperazin-1-yl]-2-(2-methoxypyridin-4-yl)-7-oxo-2H,4H,7H-[1,2,3]triazolo[4,5-b]pyridin-4-yl}-N-{3-ethylbicyclo[1.1.1]pentan-1-yl}acetamide]
≤ 0.005 | ≤ 0.5 | CCc1c(N2CCN(C(=O)c3cccnc3OC)[C@H]3CC[C@@H]32)c(=O)c2nn(C3=CCOCC3)nc2n1CC(=O)Nc1ccc(C(F)F)cc1F [Compound I-211, N-[4-(difluoromethyl)-2-fluorophenyl]-2-[2-(3,6-dihydro-2H-pyran-4-yl)-5-ethyl-6-[(1S,6S)-5-(2-methoxypyridine-3-carbonyl)-2,5-diazabicyclo[4.2.0]octan-2-yl]-7-oxo-2H,4H,7H-[1,2,3]triazolo[4,5-b]pyridin-4-yl]acetamide]
0.005 to 0.05 | 0.5 to 2 | CCc1c(N2CCN(C(=O)c3ncnc(C)c3O)[C@H]3CC[C@@H]32)c(=O)c2nn(C3CC3)nc2n1CC(=O)NC12CC(C3CC3)(C1)C2 [Compound I-32, 2-{2-cyclopropyl-5-ethyl-6-[(1S,6S)-5-(5-hydroxy-6-methylpyrimidine-4-carbonyl)-2,5-diazabicyclo[4.2.0]octan-2-yl]-7-oxo-2H,4H,7H-[1,2,3]triazolo[4,5-b]pyridin-4-yl}-N-{3-cyclopropylbicyclo[1.1.1]pentan-1-yl}acetamide]
0.005 to 0.05 | 0.5 to 2 | CCc1c(N2CCN(C(=O)c3ncnc(C)c3O)CC2)c(=O)c2nn(-c3ccncc3)nc2n1CC(=O)NC12CC(CC)(C1)C2 [Compound I-138, 2-{5-ethyl-6-[4-(5-hydroxy-6-methylpyrimidine-4-carbonyl)piperazin-1-yl]-7-oxo-2-(pyridin-4-yl)-2H,4H,7H-[1,2,3]triazolo[4,5-b]pyridin-4-yl}-N-{3-ethylbicyclo[1.1.1]pentan-1-yl}acetamide]
≤ 0.005 | ≤ 0.5 | CCc1c(N2CCN(C(=O)c3ncnc(C)c3O)[C@H]3CC[C@@H]32)c(=O)c2nn(-c3ccnc(OC)c3)nc2n1CC(=O)Nc1ccc(C(F)F)cc1Cl [Compound I-82, N-[2-chloro-4-(difluoromethyl)phenyl]-2-{5-ethyl-6-[(1S,6S)-5-(5-hydroxy-6-methylpyrimidine-4-carbonyl)-2,5-diazabicyclo[4.2.0]octan-2-yl]-2-(2-methoxypyridin-4-yl)-7-oxo-2H,4H,7H-[1,2,3]triazolo[4,5-b]pyridin-4-yl}acetamide]
0.005 to 0.05 | 2 to 5 | CCc1c(N2CCN(C(=O)c3c(OC)ncc(COC)c3O)CC2)c(=O)c2nn(-c3ccnc(OC)c3)nc2n1CC(=O)NC12CC(C(C)C)(C1)C2 [Compound I-50, 2-(5-ethyl-6-{4-[4-hydroxy-2-methoxy-5-(methoxymethyl)pyridine-3-carbonyl]piperazin-1-yl}-2-(2-methoxypyridin-4-yl)-7-oxo-2H,4H,7H-[1,2,3]triazolo[4,5-b]pyridin-4-yl)-N-[3-(propan-2-yl)bicyclo[1.1.1]pentan-1-yl]acetamide]
0.005 to 0.05 | 0.5 to 2 | CCc1c(N2CCN(C(=O)c3ccccn3)[C@H]3CC[C@@H]32)c(=O)c2nn(C3=CCOCC3)nc2n1CC(=O)NC12CC(C(C)C)(C1)C2 [Compound I-184, 2-[2-(3,6-dihydro-2H-pyran-4-yl)-5-ethyl-7-oxo-6-[(1S,6S)-5-(pyridine-2-carbonyl)-2,5-diazabicyclo[4.2.0]octan-2-yl]-2H,4H,7H-[1,2,3]triazolo[4,5-b]pyridin-4-yl]-N-[3-(propan-2-yl)bicyclo[1.1.1]pentan-1-yl]acetamide]
> 0.5 | > 5 | CCc1c(N2CCN(C(=O)c3c(OC)ncc(C)c3O)CC2)c(=O)c2nn(-c3ccnc(OC)c3)nc2n1CC(=O)NC12CC(N3CCCC3)(C1)C2 [Compound I-124, 2-{5-ethyl-6-[4-(4-hydroxy-2-methoxy-5-methylpyridine-3-carbonyl)piperazin-1-yl]-2-(2-methoxypyridin-4-yl)-7-oxo-2H,4H,7H-[1,2,3]triazolo[4,5-b]pyridin-4-yl}-N-[3-(pyrrolidin-1-yl)bicyclo[1.1.1]pentan-1-yl]acetamide]
